The source of these data is patent publication US8404225B2, “Contact sex pheromone component of the Emerald Ash Borer Agrilus planipennis Fairmaire (Coleoptera: Buprestidae)” (National Research Council of Canada, priority 2008, dated 2013).

Test [1] deals with feral EAB males (Agrilus planipennis). Kind of test: Behavioral field bioassay with dummy females (feral male contact and mating behaviour). It counts as in vivo. How it is done:
Preparation of dummy females. A total of 78 EAB females that emerged from 10-15 Jul. 2008 were reared for the field bioassay. Female EAB were reared in the quarantine facilities, as described above, until the age of 14 days, when they were frozen. Prior to the field bioassay, females were removed from the freezer and thawed for 2-3 h. For 52 of the females, each female was individually rinsed in 1 ml of hexane for about 2 min. Females were then allowed to dry for a minimum of 30 min before being rinsed again. Females were rinsed a total of three times for 2 min each time and left to dry overnight after the final rinsing. All 78 females were then individually pinned through the right elytra at its base; the heads of the pins were then snipped off such that the end of the pin was only about 1 mm above the surface of the female's body and thus would not interfere with approaches by feral male EAB. Twenty-six of the rinsed females were then treated with 1 μl of racemic 9-methyl pentacosane (ca. 5 mg/ml; one female equivalent), in solution with hexane, and allowed to dry. This divided the 78 females into three treatment groups (unwashed, washed, and washed then treated). The treatment groups were indicated by pinning a small paper insect ‘point’ underneath the female that was not visible from above. The points were colored white (unwashed), yellow (washed) or blue (washed then treated). […] Females were kept at 3-4° C. in a fridge for 2 days until used in the bioassay and were transported to the field in a cooler.
Behavioral field bioassay. The field bioassay was conducted from 7-11 Jul. 2008 at a site about 1.8 km northeast of Port Lambton, ON (42° 40.16′ N, 82° 29.56′ W). […] Dummy females were pinned to foliage on epicormic shoots of infested ash trees, growing from the base of the tree up to about 1.5 m above the ground. Females were placed and removed from foliage by grasping the pin underneath the female with tweezers and were never touched directly to avoid cross-contamination. Trees were chosen based on the presence of both epicormic shoots and feral EAB males on the foliage. Dummy females were placed in a triangle shape in groups of three (one of each treatment) about 20-30 cm apart. All females were pinned on south-facing foliage so that they would be in direct sunlight. From nine to 21 females were set up at different times on different trees, based on the amount of foliage available.
Observations of dummy females began once all females were established on the foliage, and lasted for about 1 h per observation session with breaks of 5-10 min in between observation sessions. We recorded the time of arrival of each male observed to land on a female and then the time of departure for that same male to obtain its total time spent in contact with a given female. The locations of the various treatments were not recorded, so the observations on time spent in contact by males was collected by observers who were unaware of the treatment. The treatment group (unwashed, treated, washed) was then recorded by checking for the presence of the colored insect point under the female's abdomen after the male had flown away. […]
The amount of time individual males spent in contact, and the percentage of that time spent attempting to mate, with females of the three different treatments were analyzed by one-way ANOVA after logarithmic transformation of data to meet the assumptions of normality of data and equality of variance; means were compared using the Holm-Sidak test. […]

Test [2] deals with brown Spruce Longhorn Beetle (BSLB). The following applies: inventors' soon to be published research; cited from earlier work.

On to `CCCCCCCCCCCCCCCCC(C)CCCCCCCC` (racemic) [9-Me-C25, 9-methyl pentacosane], for which, in test [1] (hexane-washed freeze-killed females treated with 1 μl racemic 9-methyl pentacosane (ca. 5 mg/ml; one female equivalent), field, about 40 h of observation), the “number of wild males landing on females” value worked out at 27. Also, in test [1] (subset of feral males (n=7 observations), one figure printed for unwashed and 9-Me-C25-treated females together, washed females about 20%), the “percentage of contact time spent attempting to mate” value is 60%-70%. Further, the “contact and copulatory activity after reapplication to hexane-rinsed females” value in test [1] (synthetic 9-Me-C25 reapplied, field bioassays) is “restored almost all contact and copulatory activity”. The “time males spent on treated females compared with washed females” value in test [1] (treated (n=27 observations) vs hexane-washed females (n=43), t=3.817, P=0.00004) is “significantly longer”. Further, in test [1] (treated (n=27 observations) vs unwashed females (n=36), t=0.138, P=0.89), the “time males spent on treated females compared with unwashed females” value is “slightly, but not significantly, less”.

As to `CCCCCCCCCCCCCC[C@@H](C)CCCCCCCCCC` (single isomer, unassigned) [11S-enantiomer], the “activity as a contact sex pheromone” value in test [2] is listed as “demonstrated activity”.
